Reference: patent US10800792B2, “Inhibitors of Bruton's tyrosine kinase and method of their use” (JANSSEN PHARMACEUTICA NV, priority 2015, dated 2020)

Target: unphosphorylated-BTK kinase domain (UP-BTK), GST-tagged human BTK (389-659aa) (Homo sapiens (Human), UniProt Q06187)
Experiment: BTK kinase Lanthascreen binding assay
Settings: Lanthascreen tracer competition, 60 minutes incubation, pIC50 = negative log of the IC50 in molar; for IC50: read-out: BTK_I_binding pIC50 (converted)
Method in brief: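 A fluorescent tracer is bound to unphosphorylated BTK; test compound is added to compete it off; the Lanthascreen signal is read and IC50 is fitted, then reported as its negative log in molar.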

unphosphorylated-BTK kinase domain (UP-BTK), GST-tagged human BTK (389-659aa), sequence (Q06187 389-659): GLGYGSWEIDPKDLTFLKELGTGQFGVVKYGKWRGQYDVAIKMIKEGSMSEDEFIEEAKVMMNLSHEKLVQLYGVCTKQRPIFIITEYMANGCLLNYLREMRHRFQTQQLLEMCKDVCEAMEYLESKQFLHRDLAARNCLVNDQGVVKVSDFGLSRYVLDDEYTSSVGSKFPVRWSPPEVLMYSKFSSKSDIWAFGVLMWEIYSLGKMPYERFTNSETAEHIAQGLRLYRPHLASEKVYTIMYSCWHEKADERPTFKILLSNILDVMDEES

| BTK_I_binding pIC50 | Compound | IC50 |
| --- | --- | --- |
| 6.1 | O=C(N[C@@H]1CCCNC1)c1sc2nccc3c2c1NC(=O)N3c1cccc(OC2CCCCC2)c1 [Example 616, (R)-5-(3-(Cyclohexyloxy)phenyl)-4-oxo-N-(piperidin-3-yl)-4,5-dihydro-3H-1-thia-3,5,8-triazaacenaphthylene-2-carboxamide] |  |
| 6.0 | O=C(N[C@@H]1CCCNC1)c1sc2nccc3c2c1NC(=O)N3c1cncc(-c2ccccc2)c1 [Example 618, (R)-4-Oxo-5-(5-phenylpyridin-3-yl)-N-(piperidin-3-yl)-4,5-dihydro-3H-1-thia-3,5,8-triazaacenaphthylene-2-carboxamide] |  |
| <6 | C=CC(=O)N1CCC[C@@H](NC(=O)c2sc3nccc4c3c2NC(=O)N4c2cnc(OC)nc2)C1 [Example 619, (R)—N-(1-Acryloylpiperidin-3-yl)-5-(2-methoxypyrimidin-5-yl)-4-oxo-4,5-dihydro-3H-1-thia-3,5,8-triazaacenaphthylene-2-carboxamide] |  |
| <6 | O=C(N[C@@H]1CCCNC1)c1sc2nccc3c2c1NC(=O)N3c1cccc(OC(F)(F)F)c1 [Example 620, (R)-4-Oxo-N-(piperidin-3-yl)-5-(3-(trifluoromethoxy)phenyl)-4,5-dihydro-3H-1-thia-3,5,8-triazaacenaphthylene-2-carboxamide] |  |
| <6 | O=C(N[C@@H]1CCCNC1)c1sc2nccc3c2c1NC(=O)N3c1cccc(-c2ccccn2)c1 [Example 622, (R)-4-Oxo-N-(piperidin-3-yl)-5-(3-(pyridin-2-yl)phenyl)-4,5-dihydro-3H-1-thia-3,5,8-triazaacenaphthylene-2-carboxamide] |  |
| <6 | O=C(N[C@@H]1CCCNC1)c1sc2nccc3c2c1NC(=O)N3c1cccc(-c2ccccc2)n1 [Example 623, (R)-4-Oxo-5-(6-phenylpyridin-2-yl)-N-(piperidin-3-yl)-4,5-dihydro-3H-1-thia-3,5,8-triazaacenaphthylene-2-carboxamide] |  |
| 5.9 | CC(C)(C)OC(=O)N1C[C@H](NC(=O)c2sc3nccc4c3c2NC(=O)N4c2ccc(Oc3ccccc3)cc2)[C@@H](F)C1 [Example 625, (3S,4S)-tert-Butyl 3-fluoro-4-(4-oxo-5-(4-phenoxyphenyl)-4,5-dihydro-3H-1-thia-3,5,8-triazaacenaphthylene-2-carboxamido)pyrrolidine-1-carboxylate] |  |
|  | O=C(N[C@@H]1CCCNC1)c1sc2nccc3c2c1NC(=O)N3c1ccc(OC2CCC2)cc1 [Example 626, (R)-5-(4-Cyclobutoxyphenyl)-4-oxo-N-(piperidin-3-yl)-4,5-dihydro-3H-1-thia-3,5,8-triazaacenaphthylene-2-carboxamide] | 1.26 µM |
| 5.9 | CC(C)(C)OC(=O)N1CCC(NC(=O)c2sc3nccc4c3c2NC(=O)N4c2ccc(Oc3ccccc3)cc2)CC1 [Example 627, tert-Butyl 4-(4-oxo-5-(4-phenoxyphenyl)-4,5-dihydro-3H-1-thia-3,5,8-triazaacenaphthylene-2-carboxamido)piperidine-1-carboxylate] |  |
| 5.8 | CC(C)(C)OC(=O)N1CCC[C@@H](NC(=O)c2sc3nccc4c3c2NC(=O)N4c2ccc(Oc3ccccc3)cc2)C1 [Example 628, (R)-tert-Butyl 3-(4-oxo-5-(4-phenoxyphenyl)-4,5-dihydro-3H-1-thia-3,5,8-triazaacenaphthylene-2-carboxamido)piperidine-1-carboxylate] |  |
|  | O=C(N[C@@H]1CCCNC1)c1sc2nccc3c2c1NC(=O)N3c1cccc(C2CCCCC2)c1 [Example 629, (R)-5-(3-Cyclohexylphenyl)-4-oxo-N-(piperidin-3-yl)-4,5-dihydro-3H-1-thia-3,5,8-triazaacenaphthylene-2-carboxamide] | 1.26 µM |

| Compound | BTK_I_binding pIC50 | IC50 |
| --- | --- | --- |
| O=C(N[C@@H]1CCCNC1)c1sc2nccc3c2c1NC(=O)N3c1cccc(OC2CCC2)c1 [Example 621, (R)-5-(3-Cyclobutoxyphenyl)-4-oxo-N-(piperidin-3-yl)-4,5-dihydro-3H-1-thia-3,5,8-triazaacenaphthylene-2-carboxamide] | <6 |  |
